Laboratory results taken from patent US20050009924A1 (priority 2003, published 2005).

Experiments:
[1] = MTT relative viability, PhTERT-SEAP (hTERT-BJ1) cells; conditions: human
Procedure: The tetrazolium reagent (MTT; 3-(4,5-di-methylthiazol)-2,5-diphenyl tetrazolium bromide, USB) was designed to yield a colored formazan upon metabolic reduction by viable cells. Approximately […] cells were plated onto each well of a 96-well plate and incubated in 5% CO2 at 37° C. for 24 h. To assess the in vitro cytotoxicity, each compound was dissolved in DMSO and prepared immediately before the experiments and was diluted into the complete medium before addition to cell cultures. Test compounds were then added to the culture medium for designated various concentrations. After 48 h, an amount of 25 μL of MTT was added to each well, and the samples were incubated at 37° C. for 4 h. A 100 μL solution of lysis buffer containing 20% SDS and 50% N,N-dimethylformamide was added to each well and incubated at 37° C. for another 16 h. The absorbency at 550 nm was measured using an ELISA reader.
Non small lung cancer cells H1299 (telomerase positive) were grown in RPMI 1640 media supplemented with 10% fetal bovine serum, 100 units/mL penicillin and 100 mg/mL streptomycin in a humidified atmosphere with 5% CO2 at 37° C. The hTERT immortalized hTERT-BJ1 (BD Biosciences Clontech)^39 were grown in DMEM media supplemented with 10% fetal calf serum, 100 units/mL penicillin and 100 mg/mL streptomycin, 1 mM sodium pyruvate, and 4 mM I-arginine in a humidified atmosphere with 5% CO2 at 37° C. Culture media were changed every 3 days. […] The stable clones derived from H1299 or hTERT-BJ1 were cultured using conditions that are similar to their parental cells.

[2] = test system: rat glioma C6 cells; assay: Cytotoxicity assay (XTT colorimetric), C6 cells; assay type: cell-based; conditions: Rattus norvegicus, C6; 48 h of drug exposure
[3] = test system: iron-induced lipid peroxidation in rat brain homogenates; assay: Iron-induced lipid peroxidation in rat brain homogenates; conditions: for Inhibition of LP(10 mM): mean percent inhibition (Table 3); for LP (%) (10 mM): relative percentage of inhibition (Table 1)
[4] = test system: human hepatoma G2 cells; assay: Cytotoxicity assay (XTT colorimetric), Hep G2; assay type: cell-based; conditions: Homo sapiens, HepG2; 48 h of drug exposure
[5] = test system: transcriptional activity of hTERT; assay: SEAP reporter assay of hTERT expression, PhTERT-SEAP (H1299); assay type: cell-based, human; conditions: Homo sapiens, NCI-H1299, H1299, read-out: Relative SEAP activity (%)
Outline: (§1)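 Read-out: rate of absorbance rise at 405 nm from p-nitrophenyl phosphate (12 mM final) hydrolysis by secreted alkaline phosphatase in heat-treated (65° C, 10 min) culture medium. Drugs at varying amounts were applied for 24 h after a 24 h pre-culture at 37° C.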

[6] = test system: transcriptional activity of hTERT; assay: SEAP reporter assay of hTERT expression, PhTERT-SEAP (hTERT-BJ1); assay type: cell-based, human; conditions: Homo sapiens, hTERT-BJ1, read-out: Relative SEAP activity (%)
Outline: as §1

[7] = MTT relative viability, PhTERT-SEAP (H1299) cells; conditions: human
[8] = hTERT-BJ1 cells, stable PhTERT-SEAP reporter clone

| Compound | viability at 48 h, 2.1 µM [1] | viability at 48 h, 21 µM [1] | viability at 48 h, 210 µM [1] | IC50 [2] | Inhibition of LP(10 mM) ([3]; 10 mM) | IC50 [4] | melting point | activity at 2.1 µM [5] | activity at 21 µM [5] | activity at 210 µM [5] | activity at 2.1 µM [6] | activity at 21 µM [6] | activity at 210 µM [6] | viability at 48 h, 2.1 µM [7] | viability at 48 h, 21 µM [7] | viability at 48 h, 210 µM [7] | LP (%) (10 mM) ([3]; 10 mM) | viability at 48 h, 2.2 µM [1] | viability at 48 h, 22 µM [1] | viability at 48 h, 220 µM [1] | further results |
| --- | --- | --- | --- | --- | --- | --- | --- | --- | --- | --- | --- | --- | --- | --- | --- | --- | --- | --- | --- | --- | --- |
| Cc1ccccc1C(=O)Oc1cccc2c1C(=O)c1cccc(OC(=O)c3ccccc3C)c1C2=O [IIIj, 1,5-Bis(2-toluoyloxy)-anthraquinone] | 118 ± 11.6% | 82 ± 8.5% | 39 ± 13% | 25.1 ± 2.8 µM | 23 ± 1.1% | 21.6 ± 2.2 µM | 262 to 263 °C | 97 ± 4.4% | 91 ± 7.4% | 90 ± 4.2% | 129 ± 13% | 120 ± 24% | 94 ± 27.1% | 72 ± 4.9% | 36 ± 9.7% | 45 ± 8% |  |  |  |  |  |
| CCCSc1cccc2c1C(=O)c1cccc(SCCC)c1C2=O [IIc, 1,5-Bis(propylthio)-anthraquinone] |  |  |  | 29.9 ± 2.1 µM |  | 75.1 ± 2.5 µM | 232 to 233 °C |  |  |  |  |  |  |  |  |  | 15 ± 1.5% |  |  |  | viability at 48 h, 2.8 µM [1]: 103 ± 6.3%; viability at 48 h, 28 µM [1]: 97 ± 3%; viability at 48 h, 280 µM [1]: 39 ± 4.9%; activity at 2.8 µM ([5]; 2.8 μM): 73 ± 5.4%; activity at 28 µM ([5]; 28 μM): 29 ± 2.5%; activity at 280 µM ([5]; 280 μM): 17 ± 13.9%; activity at 2.8 µM ([6]; 2.8 μM): 132 ± 21%; activity at 28 µM ([6]; 28 μM): 110 ± 13.2%; activity at 280 µM ([6]; 280 μM): 122 ± 14.3%; viability at 48 h, 2.8 µM [7]: 96 ± 5.9%; viability at 48 h, 28 µM [7]: 44 ± 2.5%; viability at 48 h, 280 µM [7]: 25 ± 2.4% |
| Cc1cccc(C(=O)Oc2cccc3c2C(=O)c2cccc(OC(=O)c4cccc(C)c4)c2C3=O)c1 [IIIk, 1,5-Bis(3-toluoyloxy)-anthraquinone] | 98 ± 9.4% | 54 ± 7.5% | 47 ± 4.8% | 30.1 ± 3.3 µM | −32 ± 1.5^ % | 18.1 ± 1.5 µM | 269 to 270 °C | 104 ± 5.4% | 116 ± 12.8% | 110 ± 16.4% | 141 ± 10.5% | 124 ± 15.6% | 86 ± 17.2% | 26 ± 3.7% | 28 ± 5% | 29 ± 3.3% |  |  |  |  |  |
| O=C1c2cccc(SCc3ccccc3)c2C(=O)c2cccc(SCc3ccccc3)c21 [IIi, 1,5-Bis(benzylthio)-anthraquinone] |  |  |  | 38.2 ± 4.4 µM |  | 41.5 ± 2.5 µM | 281 to 282 °C |  |  |  |  |  |  |  |  |  | >100% | 121 ± 4.7% | 98 ± 4.2% | 47 ± 9.1% | Inhibition (%) ([3]; 0.01 mM): 24 ± 0.8%; Inhibition (%) ([3]; 0.1 mM): 60 ± 2.0%; Inhibition (%) ([3]; 1 mM): 95%; Inhibition (%) ([3]; 10 mM): >100%; activity at 2.2 µM [5]: 97 ± 6%; activity at 22 µM [5]: 100 ± 7.2%; activity at 220 µM [5]: 100 ± 12.9%; activity at 2.2 µM [6]: 117 ± 11.3%; activity at 22 µM [6]: 112 ± 9.3%; activity at 220 µM [6]: 87 ± 11.1%; viability at 48 h, 2.2 µM [7]: 83 ± 5.5%; viability at 48 h, 22 µM [7]: 44 ± 0.9%; viability at 48 h, 220 µM [7]: 34 ± 3.3% |
| O=C(CCc1ccccc1)Oc1cccc2c1C(=O)c1cccc(OC(=O)CCc3ccccc3)c1C2=O [IIIn, 1,5-Bis(phenylpropionyloxy)-anthraquinone] |  |  |  | 40.1 ± 5.5 µM | >100% | 0.4 ± 0.1 µM | 219 to 220 °C |  |  |  |  |  |  |  |  |  |  |  |  |  | viability at 48 h, 2 µM [1, 8]: 111 ± 7.3%; viability at 48 h, 20 µM [1, 8]: 106 ± 6.6%; viability at 48 h, 200 µM [1, 8]: 76 ± 7.2%; Inhibition (%) ([3]; 0.01 mM): 50 ± 0.8%; Inhibition (%) ([3]; 0.1 mM): 95 ± 2.0%; Inhibition (%) ([3]; 1 mM): >100%; Inhibition (%) ([3]; 10 mM): >100%; activity at 2 µM ([5]; 2.0 μM): 94 ± 2.5%; activity at 20 µM ([5]; 20 μM): 98 ± 4.7%; activity at 200 µM ([5]; 200 μM): 89 ± 5.2%; activity at 2 µM ([6]; 2.0 μM): 126 ± 6.1%; activity at 20 µM ([6]; 20 μM): 124 ± 13.4%; activity at 200 µM ([6]; 200 μM): 110 ± 10.5%; viability at 48 h, 2 µM [7]: 111 ± 0.8%; viability at 48 h, 20 µM [7]: 101 ± 4.3%; viability at 48 h, 200 µM [7]: 54 ± 4.1% |
| O=C1c2cccc(SCCc3ccccc3)c2C(=O)c2cccc(SCCc3ccccc3)c21 [IIk, 1,5-Bis(phenylethylthio)-anthraquinone] |  |  |  | 32.9 ± 3.3 µM |  | 36.9 ± 1.5 µM | 209 to 210 °C |  |  |  |  |  |  |  |  |  | 69 ± 1.5% | 91 ± 3.9% | 54 ± 4.4% | 35 ± 4.1% | activity at 2.2 µM [5]: 108 ± 0.5%; activity at 22 µM [5]: 102 ± 0.5%; activity at 220 µM [5]: 97 ± 4.8%; activity at 2.2 µM [6]: 119 ± 12.2%; activity at 22 µM [6]: 109 ± 23.4%; activity at 220 µM [6]: 110 ± 30.6%; viability at 48 h, 2.2 µM [7]: 93 ± 6.2%; viability at 48 h, 22 µM [7]: 51 ± 9.3%; viability at 48 h, 220 µM [7]: 27 ± 2.9% |
| Cc1ccc(C(=O)Oc2cccc3c2C(=O)c2cccc(OC(=O)c4ccc(C)cc4)c2C3=O)cc1 [IIIl, 1,5-Bis(4-toluoyloxy)-anthraquinone] | 102 ± 13.9% | 98 ± 6.3% | 56 ± 6.2% | 37.6 ± 4.1 µM | 33 ± 1.2% | 9.3 ± 0.9 µM | 331 to 332 °C | 98 ± 1.1% | 95 ± 4.3% | 95 ± 8.9% | 130 ± 8.8% | 126 ± 13.3% | 99 ± 15.8% | 61 ± 5.8% | 33 ± 2.8% | 32 ± 5.7% |  |  |  |  |  |
| Nc1cccc(Sc2cccc3c2C(=O)c2cccc(Sc4cccc(N)c4)c2C3=O)c1 [IIg, 1,5-Bis(m-aminophenylthio)-Anthraquinone] |  |  |  | 26.3 ± 2.8 µM |  | 21.5 ± 1.2 µM | 292 to 293 °C |  |  |  |  |  |  |  |  |  | 6 ± 0.9% | 104 ± 5.1% | 9 ± 3.4% | 4 ± 1.5% | activity at 2.2 µM [5]: 106 ± 7.6%; activity at 22 µM [5]: 109 ± 11.7%; activity at 220 µM [5]: 101 ± 7.3%; activity at 2.2 µM [6]: 118 ± 9.9%; activity at 22 µM [6]: 41 ± 9.5%; activity at 220 µM [6]: 8 ± 30.6%; viability at 48 h, 2.2 µM [7]: 92 ± 3.5%; viability at 48 h, 22 µM [7]: 68 ± 1.9%; viability at 48 h, 220 µM [7]: 32 ± 4.9% |
